Broadly, the IC50 is the concentration at which inhibition is half-maximal.

Experimental findings from patent US10954214B2 (Janssen Pharmaceutica NV, priority 2016, dated 2021) are described below.

The subject of assay [1] is IL10 secretion by TMD8 ABC-DLBCL cells. As to the kind of experiment: Human IL10 Mesoscale assay (TMD-8). Conditions: Homo sapiens, TMD8; TMD-8 cells, 24 h. It counts as cell-based. In short, it runs like this:
(§1)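 After 24 h at 37 °C with test compounds (15 μM down to 58.6 nM, 9 twofold steps, 0.3% DMSO), IL6 and IL10 secreted by 100,000 OCI-LY3 or TMD8 cells per well were measured in supernatants with a Mesoscale immunoassay. Data were scaled between DMSO wells (high) and RN486 treatment (low).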

Assay [2] concerns the target full-length MALT1 protein (Strep-MALT1(1-824)-His) (Homo sapiens (Human), UniProt Q9UDY8). The experiment in a line: MALT1 Biochemical Protease Assay (Ac-LRSR-AMC substrate). Conditions: 10 nM FL MALT1, 200 μM Ac-LRSR-AMC, 4 h at RT; read-out: MALT1_Biochemical activity (Ac-LRSR-amc) IC50. An outline of the steps:
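Full-length MALT1 pre-incubated with compounds (30 μM to 0.5 nM, 11 threefold steps) for 50 min at RT. After Ac-LRSR-AMC was added, the reaction ran 4 h at RT and AMC fluorescence was read. IC50 and Hill slope from curve fitting against no-enzyme and no-compound controls.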

For assay [3], the system named is IL6 secretion by TMD8 ABC-DLBCL cells. As to the kind of experiment: Human IL6 Mesoscale assay (TMD-8). The class given is cell-based. Conditions: Homo sapiens, TMD8; TMD-8 cells, 24 h. In short, it runs like this: as §1

Each structure is given as a SMILES string.

full-length MALT1 protein (Strep-MALT1(1-824)-His), sequence (Q9UDY8 whole entry): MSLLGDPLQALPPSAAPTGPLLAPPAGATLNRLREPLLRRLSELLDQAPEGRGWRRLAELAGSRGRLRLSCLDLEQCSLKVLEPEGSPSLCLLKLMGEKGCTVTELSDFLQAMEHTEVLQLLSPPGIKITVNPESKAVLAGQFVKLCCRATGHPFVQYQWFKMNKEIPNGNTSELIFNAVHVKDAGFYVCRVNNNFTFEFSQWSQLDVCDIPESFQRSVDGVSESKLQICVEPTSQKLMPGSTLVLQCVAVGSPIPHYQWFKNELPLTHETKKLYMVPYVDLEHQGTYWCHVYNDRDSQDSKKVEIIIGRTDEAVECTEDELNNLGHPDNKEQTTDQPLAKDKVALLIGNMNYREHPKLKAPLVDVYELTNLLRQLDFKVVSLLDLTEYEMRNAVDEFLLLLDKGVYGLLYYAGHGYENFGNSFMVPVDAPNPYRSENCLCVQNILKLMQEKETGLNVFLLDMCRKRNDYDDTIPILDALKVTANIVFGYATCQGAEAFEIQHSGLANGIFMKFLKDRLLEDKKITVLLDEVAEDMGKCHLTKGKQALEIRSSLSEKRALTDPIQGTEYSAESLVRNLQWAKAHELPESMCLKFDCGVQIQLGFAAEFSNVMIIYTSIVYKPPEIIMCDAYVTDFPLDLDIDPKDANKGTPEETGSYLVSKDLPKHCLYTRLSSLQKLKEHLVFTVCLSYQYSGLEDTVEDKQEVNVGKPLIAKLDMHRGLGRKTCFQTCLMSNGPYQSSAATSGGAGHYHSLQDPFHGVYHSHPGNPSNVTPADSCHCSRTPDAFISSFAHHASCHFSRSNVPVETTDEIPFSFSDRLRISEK

On to `Cn1ncc(-c2ncc(NC(=O)c3cnn(-c4cccc5ncccc45)c3C(F)(F)F)cc2C#N)n1` [Cpd 257, N-(5-cyano-6-(2-methyl-2H-1,2,3-triazol-4-yl)pyridin-3-yl)-1-(quinolin-5-yl)-5-(trifluoromethyl)-1H-pyrazole-4-carboxamide], for which the IC50 in assay [1] is 646 nM; in assay [2], 234 nM; in assay [3], above 3200 nM.

Take `COC(=O)c1ncc(NC(=O)c2cnn(-c3cccc4ncccc34)c2C(F)(F)F)cc1Cl` [Cpd 258, methyl 3-chloro-5-(1-(quinolin-5-yl)-5-(trifluoromethyl)-1H-pyrazole-4-carboxamido)picolinate]: the IC50 in assay [1] is 316 nM; in assay [2] it was 229 nM; in assay [3], 589 nM.

For `O=C(Nc1cnc(-n2nccn2)c(Cl)c1)c1cnn(-c2ccc(F)c3cccnc23)c1C(F)(F)F` [Cpd 261, N-(5-chloro-6-(2H-1,2,3-triazol-2-yl)pyridin-3-yl)-1-(5-fluoroquinolin-8-yl)-5-(trifluoromethyl)-1H-pyrazole-4-carboxamide], the values for the IC50 in assay [1], in assay [2] and in assay [3] were 479 nM, 195 nM and 794 nM, respectively.

As for `N#Cc1cc(NC(=O)c2cnn(-c3ncc(F)c4ccccc34)c2C(F)(F)F)cnc1-n1nccn1` [Cpd 263, N-(5-cyano-6-(2H-1,2,3-triazol-2-yl)pyridin-3-yl)-1-(4-fluoroisoquinolin-1-yl)-5-(trifluoromethyl)-1H-pyrazole-4-carboxamide], the IC50 in assay [1] was above 302 nM; in assay [2] it was 191 nM; in assay [3], above 302 nM.

As for `O=C(Nc1cnc(-n2nccn2)c(Cl)c1)c1cnn(-c2cnc(F)c3ccccc23)c1C(F)(F)F` [Cpd 264, N-(5-chloro-6-(2H-1,2,3-triazol-2-yl)pyridin-3-yl)-1-(1-fluoroisoquinolin-4-yl)-5-(trifluoromethyl)-1H-pyrazole-4-carboxamide], the IC50 came out at 36 nM in assay [1], 166 nM in assay [2] and 123 nM in assay [3].

As for `Cn1nc(-n2ncc(C(=O)Nc3cnc(-n4nccn4)c(C#N)c3)c2C(F)(F)F)c2cccnc21` [Cpd 265, N-(5-cyano-6-(2H-1,2,3-triazol-2-yl)pyridin-3-yl)-1-(1-methyl-1H-pyrazolo[3,4-b]pyridin-3-yl)-5-(trifluoromethyl)-1H-pyrazole-4-carboxamide], the IC50 in assay [1] is 120 nM; in assay [2] it was 166 nM; in assay [3], above 1510 nM.

Consider `COC(=O)c1cc(-c2ncc(NC(=O)c3cnn(-c4cccc5ncccc45)c3C(F)(F)F)cc2C#N)nn1C` [Cpd 267, methyl 3-(3-cyano-5-(1-(quinolin-5-yl)-5-(trifluoromethyl)-1H-pyrazole-4-carboxamido)pyridin-2-yl)-1-methyl-1H-pyrazole-5-carboxylate], for which the IC50 in assay [1] is 56 nM; in assay [2], 155 nM; in assay [3], 35 nM.

For the compound `O=C(Nc1cnc(-n2nccn2)c(Cl)c1)c1cnn(-c2nsc3ncccc23)c1C(F)(F)F` [Cpd 279, N-(5-chloro-6-(2H-1,2,3-triazol-2-yl)pyridin-3-yl)-1-(isothiazolo[5,4-b]pyridin-3-yl)-5-(trifluoromethyl)-1H-pyrazole-4-carboxamide], the IC50 in assay [1] came to 2750 nM; in assay [2] it was 126 nM; in assay [3], 3720 nM.

For `N#Cc1cc(NC(=O)c2cnn(-c3cccc4ncccc34)c2C(F)(F)F)cnc1-n1cccc1` [Cpd 280, N-(5-cyano-6-(1H-pyrrol-1-yl)pyridin-3-yl)-1-(quinolin-5-yl)-5-(trifluoromethyl)-1H-pyrazole-4-carboxamide], the IC50 is 2400 nM in assay [1], 126 nM in assay [2] and 5500 nM in assay [3].

In the case of `COc1nccc2c(-n3ncc(C(=O)Nc4cnc(-n5nccn5)c(C#N)c4)c3C(F)(F)F)cccc12` [Cpd 281, N-(5-cyano-6-(2H-1,2,3-triazol-2-yl)pyridin-3-yl)-1-(1-methoxyisoquinolin-5-yl)-5-(trifluoromethyl)-1H-pyrazole-4-carboxamide], the values for the IC50 in assay [1], in assay [2] and in assay [3] were 3020 nM, 123 nM and 2570 nM, respectively.

For the compound `Cc1cc(NC(=O)c2cnn(-c3cccc4ncccc34)c2C(F)(F)F)cnc1-c1nnn(C)n1` [Cpd 305, N-(5-methyl-6-(2-methyl-2H-tetrazol-5-yl)pyridin-3-yl)-1-(quinolin-5-yl)-5-(trifluoromethyl)-1H-pyrazole-4-carboxamide], the IC50 was 7940 nM in assay [1], 62 nM in assay [2] and above 15100 nM in assay [3].

Take `N#Cc1cc(NC(=O)c2cnn(-c3cc(N)nc4ccccc34)c2C(F)(F)F)cnc1-n1nccn1` [Cpd 329, 1-(2-aminoquinolin-4-yl)-N-(5-cyano-6-(2H-1,2,3-triazol-2-yl)pyridin-3-yl)-5-(trifluoromethyl)-1H-pyrazole-4-carboxamide]: the values for the IC50 in assay [1], in assay [2] and in assay [3] were 1440 nM, 661 nM and 1660 nM, respectively.

As to `O=C(Nc1ccnc(N2CCOCC2)c1)c1cnn(-c2cccc3c(=O)[nH]ccc23)c1C(F)(F)F` [Cpd 361, N-(2-morpholinopyridin-4-yl)-1-(1-oxo-1,2-dihydroisoquinolin-5-yl)-5-(trifluoromethyl)-1H-pyrazole-4-carboxamide], the figures for the IC50 in assay [1], in assay [2] and in assay [3] were 617 nM, 12300 nM and 1260 nM, respectively.

For the compound `Cc1cn(-c2nc(C)c(NC(=O)c3cnn(-c4cccc5c(=O)[nH]ccc45)c3C(F)(F)F)cc2Cl)nn1` [Cpd 362, N-(5-chloro-2-methyl-6-(4-methyl-1H-1,2,3-triazol-1-yl)pyridin-3-yl)-1-(1-oxo-1,2-dihydroisoquinolin-5-yl)-5-(trifluoromethyl)-1H-pyrazole-4-carboxamide], the IC50 in assay [1] amounted to 1180 nM; in assay [2] it was 138 nM; in assay [3], 3470 nM.

With `O=C(Nc1cncc(-n2nccn2)c1)c1cnn(-c2cccc3c(=O)[nH]ccc23)c1C(F)(F)F` [Cpd 363, N-(5-(2H-1,2,3-triazol-2-yl)pyridin-3-yl)-1-(1-oxo-1,2-dihydroisoquinolin-5-yl)-5-(trifluoromethyl)-1H-pyrazole-4-carboxamide], the figures for the IC50 in assay [1], in assay [2] and in assay [3] were above 302 nM, 26300 nM and above 302 nM, respectively.

Regarding `CC(=O)c1cc(-n2ncc(C(=O)Nc3cnc(-n4nccn4)c(Cl)c3)c2C(F)(F)F)c2ccccc2n1` [Cpd 375, 1-(2-acetylquinolin-4-yl)-N-(5-chloro-6-(2H-1,2,3-triazol-2-yl)pyridin-3-yl)-5-(trifluoromethyl)-1H-pyrazole-4-carboxamide], the values for the IC50 in assay [1], in assay [2] and in assay [3] were 85 nM, 355 nM and 102 nM, respectively.

As to `CC(=O)c1nccc2c(-n3ncc(C(=O)Nc4cnc(-n5nccn5)c(Cl)c4)c3C(F)(F)F)cccc12` [Cpd 378, 1-(1-acetylisoquinolin-5-yl)-N-(5-chloro-6-(2H-1,2,3-triazol-2-yl)pyridin-3-yl)-5-(trifluoromethyl)-1H-pyrazole-4-carboxamide], the IC50 turned out to be 182 nM in assay [1], 447 nM in assay [2] and 389 nM in assay [3].

For `O=C(Nc1cnc(-n2nccn2)c(Cl)c1)c1cnn(-c2cnc(C3CCN3)c3ccccc23)c1C(F)(F)F` (stereo not drawn) [Cpd 379, 1-(1-(azetidin-2-yl)isoquinolin-4-yl)-N-(5-chloro-6-(2H-1,2,3-triazol-2-yl)pyridin-3-yl)-5-(trifluoromethyl)-1H-pyrazole-4-carboxamide], the IC50 turned out to be 15 nM in assay [1], 501 nM in assay [2] and 21 nM in assay [3].

With `O=C(Nc1cnc(-n2nccn2)c(Cl)c1)c1cnn(-c2cccc3nc(C4CCN4)ccc23)c1C(F)(F)F` (stereo not drawn) [Cpd 381, 1-(2-(azetidin-2-yl)quinolin-5-yl)-N-(5-chloro-6-(2H-1,2,3-triazol-2-yl)pyridin-3-yl)-5-(trifluoromethyl)-1H-pyrazole-4-carboxamide], the IC50 in assay [1] was 43 nM; in assay [2], 4900 nM; in assay [3], 21 nM.

For `NC(=O)c1cc(-n2ncc(C(=O)Nc3cnc(-n4nccn4)c(Cl)c3)c2C(F)(F)F)c2ccccc2n1` [Cpd 386, 4-(4-((5-chloro-6-(2H-1,2,3-triazol-2-yl)pyridin-3-yl)carbamoyl)-5-(trifluoromethyl)-1H-pyrazol-1-yl)quinoline-2-carboxamide], the IC50 in assay [1] turned out to be 21 nM; in assay [2] it was 107 nM; in assay [3] it was 56 nM.

With `NC(=O)c1ccc2c(-n3ncc(C(=O)Nc4cnc(-n5nccn5)c(Cl)c4)c3C(F)(F)F)cccc2n1` [Cpd 388, 5-(4-((5-chloro-6-(2H-1,2,3-triazol-2-yl)pyridin-3-yl)carbamoyl)-5-(trifluoromethyl)-1H-pyrazol-1-yl)quinoline-2-carboxamide], the figures for the IC50 in assay [1], in assay [2] and in assay [3] were 54 nM, 2000 nM and 126 nM, respectively.

Take `NC(=O)c1nccc2c(-n3ncc(C(=O)Nc4cnc(-n5nccn5)c(Cl)c4)c3C(F)(F)F)cccc12` [Cpd 389, 5-(4-((5-chloro-6-(2H-1,2,3-triazol-2-yl)pyridin-3-yl)carbamoyl)-5-(trifluoromethyl)-1H-pyrazol-1-yl)isoquinoline-1-carboxamide]: the figures for the 50% inhibitory concentration (IC50) in assay [1], in assay [2] and in assay [3] were 46 nM, 186 nM and 58 nM, respectively.
